Measured values reported in patent US12077503B2, “Substituted cyclic amides and their use as herbicides” (FMC CORPORATION, priority 2015, dated 2024).

Legend:
Assay type in all cases: in vivo
[1] = test system: corn (Zea mays); test: Test A postemergence; settings: Zea mays, post-emergence, 240 h; for plant injury at 125 g/ha: 125 g ai/ha, postemergence, visual injury on 0 to 100 scale (0 no effect, 100 complete control), approx. 10 d, read-out: Corn plant response rating; for Corn plant response rating (crop injury, 0 = no effect, 100 = complete kill) at 31 g/ha: Postemergence, 31 g ai/ha, visual injury after approx. 10 d, 0 to 100 scale, 100 complete control
Outline: (§1)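 Each rating is a visual injury score from 0 to 100 given about 10 d after treatment, judged against untreated controls kept alongside in the greenhouse. In loam soil–sand blend, seeds got a preemergence directed soil spray, while postemergence plants were 2 to 10 cm tall at spraying.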

[2] = test system: ryegrass, Italian (Italian ryegrass, Lolium multiflorum); test: Test A postemergence; settings: Lolium multiflorum, post-emergence, 240 h; for pest or weed control at 125 g/ha: 125 g ai/ha, postemergence, visual injury on 0 to 100 scale (0 no effect, 100 complete control), approx. 10 d, read-out: Ryegrass, Italian plant response rating; for pest or weed control at 31 g/ha: Postemergence, 31 g ai/ha, visual injury after approx. 10 d, 0 to 100 scale, 0 no effect, 100 complete control, read-out: Plant response rating, Ryegrass, Italian
Outline: as §1

[3] = test system: blackgrass (Alopecurus myosuroides); test: Test A postemergence; settings: Alopecurus myosuroides, post-emergence, 240 h; for pest or weed control at 125 g/ha: 125 g ai/ha, postemergence, visual injury on 0 to 100 scale (0 no effect, 100 complete control), approx. 10 d, read-out: Blackgrass plant response rating; for pest or weed control at 31 g/ha: Postemergence, 31 g ai/ha, visual injury after approx. 10 d, 0 to 100 scale, 0 no effect, 100 complete control, read-out: Plant response rating, Blackgrass
Outline: as §1

[4] = test system: Kochia (Kochia scoparia); test: Test A postemergence; settings: Bassia scoparia, post-emergence, 240 h; for pest or weed control at 125 g/ha: 125 g ai/ha, postemergence, visual injury on 0 to 100 scale (0 no effect, 100 complete control), approx. 10 d, read-out: Kochia plant response rating; for pest or weed control at 31 g/ha: Postemergence, 31 g ai/ha, visual injury after approx. 10 d, 0 to 100 scale, 0 no effect, 100 complete control, read-out: Plant response rating, Kochia
Outline: as §1

[5] = test system: Galium (catchweed bedstraw, Galium aparine); test: Test A postemergence; settings: Galium, post-emergence, 240 h; for pest or weed control at 125 g/ha: 125 g ai/ha, postemergence, visual injury on 0 to 100 scale (0 no effect, 100 complete control), approx. 10 d, read-out: Galium plant response rating; for pest or weed control at 31 g/ha: Postemergence, 31 g ai/ha, visual injury after approx. 10 d, 0 to 100 scale, 0 no effect, 100 complete control, read-out: Plant response rating, Galium
Outline: as §1

[6] = test system: ragweed (common ragweed, Ambrosia elatior); test: Test A postemergence; settings: Ambrosia artemisiifolia, post-emergence, 240 h; for pest or weed control at 125 g/ha: 125 g ai/ha, postemergence, visual injury on 0 to 100 scale (0 no effect, 100 complete control), approx. 10 d, read-out: Ragweed plant response rating; for pest or weed control at 31 g/ha: Postemergence, 31 g ai/ha, visual injury after approx. 10 d, 0 to 100 scale, 0 no effect, 100 complete control, read-out: Plant response rating, Ragweed
Outline: as §1

[7] = test system: giant foxtail (Setaria faberii); test: Test A postemergence; settings: Setaria faberi, post-emergence, 240 h; for pest or weed control at 125 g/ha: 125 g ai/ha, postemergence, visual injury on 0 to 100 scale (0 no effect, 100 complete control), approx. 10 d, read-out: Foxtail, Giant plant response rating; for pest or weed control at 31 g/ha: Postemergence, 31 g ai/ha, visual injury after approx. 10 d, 0 to 100 scale, 0 no effect, 100 complete control, read-out: Plant response rating, Foxtail, Giant
Outline: as §1

[8] = test system: barnyardgrass (Echinochloa crus-galli); test: Test A postemergence; settings: Echinochloa crus-galli, post-emergence, 240 h; for pest or weed control at 125 g/ha: 125 g ai/ha, postemergence, visual injury on 0 to 100 scale (0 no effect, 100 complete control), approx. 10 d, read-out: Barnyardgrass plant response rating; for pest or weed control at 31 g/ha: Postemergence, 31 g ai/ha, visual injury after approx. 10 d, 0 to 100 scale, 0 no effect, 100 complete control, read-out: Plant response rating, Barnyardgrass
Outline: as §1

[9] = test system: pigweed (Amaranthus retroflexus); test: Test A postemergence; settings: Amaranthus retroflexus, post-emergence, 240 h; for pest or weed control at 125 g/ha: 125 g ai/ha, postemergence, visual injury on 0 to 100 scale (0 no effect, 100 complete control), approx. 10 d, read-out: Pigweed plant response rating; for pest or weed control at 31 g/ha: Postemergence, 31 g ai/ha, visual injury after approx. 10 d, 0 to 100 scale, 0 no effect, 100 complete control, read-out: Plant response rating, Pigweed
Outline: as §1

[10] = test system: wheat (Triticum aestivum); test: Test A postemergence; settings: Triticum aestivum, post-emergence, 240 h; for plant injury at 125 g/ha: 125 g ai/ha, postemergence, visual injury on 0 to 100 scale (0 no effect, 100 complete control), approx. 10 d, read-out: Wheat plant response rating; for plant injury at 31 g/ha: Postemergence, 31 g ai/ha, visual injury after approx. 10 d, 0 to 100 scale, 0 no effect, 100 complete control, read-out: Plant response rating, Wheat
Outline: as §1

[11] = test system: ryegrass, Italian (Italian ryegrass, Lolium multiflorum); test: Test A preemergence; settings: Lolium multiflorum, pre-emergence, 240 h, 0 to 100 scale where 0 is no effect and 100 is complete control, read-out: Ryegrass, Italian plant response rating; for pest or weed control at 31 g/ha: 31 g ai/ha, Preemergence; for pest or weed control at 125 g/ha: 125 g ai/ha, preemergence, approx. 10 d
Outline: as §1

[12] = test system: Kochia (Kochia scoparia); test: Test A preemergence; settings: Bassia scoparia, pre-emergence, 240 h, 0 to 100 scale where 0 is no effect and 100 is complete control, read-out: Kochia plant response rating; for pest or weed control at 31 g/ha: 31 g ai/ha, Preemergence; for pest or weed control at 125 g/ha: 125 g ai/ha, preemergence, approx. 10 d
Outline: as §1

[13] = test system: ragweed (common ragweed, Ambrosia elatior); test: Test A preemergence; settings: Ambrosia artemisiifolia, pre-emergence, 240 h, 0 to 100 scale where 0 is no effect and 100 is complete control, read-out: Ragweed plant response rating; for pest or weed control at 31 g/ha: 31 g ai/ha, Preemergence; for pest or weed control at 125 g/ha: 125 g ai/ha, preemergence, approx. 10 d
Outline: as §1

[14] = test system: barnyardgrass (Echinochloa crus-galli); test: Test A preemergence; settings: Echinochloa crus-galli, pre-emergence, 240 h, Preemergence; for pest or weed control at 31 g/ha: 31 g ai/ha, 0 to 100 scale where 0 is no effect and 100 is complete control, read-out: Barnyardgrass plant response rating; for pest or weed control at 125 g/ha: 125 g ai/ha, visual injury rating after approximately 10 d, read-out: Barnyardgrass plant response rating (0 to 100 scale, 0 is no effect, 100 is complete control)
Outline: as §1

[15] = test system: pigweed (Amaranthus retroflexus); test: Test A preemergence; settings: Amaranthus retroflexus, pre-emergence, 240 h, 0 to 100 scale where 0 is no effect and 100 is complete control, read-out: Pigweed plant response rating; for pest or weed control at 31 g/ha: 31 g ai/ha, Preemergence; for pest or weed control at 125 g/ha: 125 g ai/ha, preemergence, approx. 10 d

| Structure (SMILES) | plant injury at 125 g/ha [1] [%] | Corn plant response rating (crop injury, 0 = no effect, 100 = complete kill) at 31 g/ha [1] [%] | pest or weed control at 125 g/ha [2] [%] | pest or weed control at 31 g/ha [2] [%] | pest or weed control at 125 g/ha [3] [%] | pest or weed control at 31 g/ha [3] [%] | pest or weed control at 125 g/ha [4] [%] | pest or weed control at 31 g/ha [4] [%] | pest or weed control at 125 g/ha [5] [%] | pest or weed control at 31 g/ha [5] [%] | pest or weed control at 125 g/ha [6] [%] | pest or weed control at 31 g/ha [6] [%] | pest or weed control at 125 g/ha [7] [%] | pest or weed control at 31 g/ha [7] [%] | pest or weed control at 125 g/ha [8] [%] | pest or weed control at 31 g/ha [8] [%] | pest or weed control at 125 g/ha [9] [%] | pest or weed control at 31 g/ha [9] [%] | plant injury at 125 g/ha [10] [%] | plant injury at 31 g/ha [10] [%] | further results |
| --- | --- | --- | --- | --- | --- | --- | --- | --- | --- | --- | --- | --- | --- | --- | --- | --- | --- | --- | --- | --- | --- |
| COc1cccc([C@H]2CN(C)C(=O)[C@@H]2C(=O)Nc2ccc(F)c(F)c2F)c1 [Compound 1063] | 50 | 0 | 30 | 0 | 30 | 20 | 0 | 0 | 50 | 30 | 0 | 0 | 90 | 80 | 90 | 70 | 20 | 0 | 40 | 0 | pest or weed control at 31 g/ha [11]: 0%; pest or weed control at 125 g/ha [11]: 0%; pest or weed control at 31 g/ha [12]: 10%; pest or weed control at 125 g/ha [12]: 20%; pest or weed control at 31 g/ha [13]: 0%; pest or weed control at 125 g/ha [13]: 30%; pest or weed control at 31 g/ha [14]: 100%; pest or weed control at 125 g/ha [14]: 100%; pest or weed control at 31 g/ha [15]: 0%; pest or weed control at 125 g/ha [15]: 0% |
| COc1cccc([C@H]2CN(C)C(=O)[C@@H]2C(=O)Nc2cccc(F)c2F)c1 [Compound 1062] | 0 | 0 | 20 | 0 | 30 | 0 | 0 | 0 | 50 | 0 | 30 | 30 | 90 | 90 | 90 | 70 | 0 | 0 | 30 | 0 | pest or weed control at 31 g/ha [11]: 10%; pest or weed control at 125 g/ha [11]: 20%; pest or weed control at 31 g/ha [12]: 0%; pest or weed control at 125 g/ha [12]: 20%; pest or weed control at 31 g/ha [13]: 70%; pest or weed control at 125 g/ha [13]: 0%; pest or weed control at 31 g/ha [14]: 100%; pest or weed control at 125 g/ha [14]: 100%; pest or weed control at 31 g/ha [15]: 0%; pest or weed control at 125 g/ha [15]: 0% |
